Test results from patent publication US6013628A, “Method for treating conditions of the eye using polypeptides” (Regents of the University of Minnesota, priority 1995, dated 2000).
No end group written: not given here.

Legend:
[1] = system: rabbit dermal fibroblasts; test: Fibroblast-mediated collagen gel contraction (shrinkage) assay; format: cell-based; conditions: for Contraction: 200 ug laminin peptide, no peptide 67%; for Contraction / % Contraction: cells preincubated 1 hr, gel surface area by planimetry at day 7; for Effect on fibroblast-mediated collagen gel contraction: gels cast with and without fibronectin; for % Contraction: 200 ug type IV collagen peptide, no peptide 36%
Description: As indicated above, proliferative vitreoretinopathy is the result of the proliferation and migration of fibroblasts, retinal pigment epithelial cells, and glial cells, and their organization into vitreous strands and epiretinal membranes. The vitreous strands and epiretinal membranes can contract, resulting in traction retinal detachment. The ability of rabbit dermal fibroblasts to cause contraction was examined in the collagen gel shrinkage model, which serves as an in vitro model of proliferative vitreoretinopathy (see Verdoon et al., Arch. Ophthalmol., 104, 1216-1219 (1986)). The ability of synthetic polypeptides derived from ECM molecules to inhibit contraction in the collagen gel shrinkage model using rabbit fibroblasts was also examined.
Fifty thousand rabbit dermal fibroblasts were suspended in 250 μl of fibroblast assay medium and mixed with 250 μl of Vitrogen and dispensed into the wells of a 48-well plate. The cells were preincubated with the desired polypeptide concentration (25, 50, 100, or 200 ug/ml) for one hour at 37° C. before mixing with the Vitrogen. Gelling occurred within 20 minutes after transfer of the mix of cell suspension and Vitrogen into an incubator at 37° C. with 5% CO2. The gels were overlaid with 250 μl of growth medium. All conditions were tested in duplicate wells. After 24 hours, the gels were detached from the sides of the wells by sweeping with a 27-gauge needle inserted at the interface between the plastic well and the gel (FIGS. 6-8).
Contraction of collagen gels was quantitated by use of planimetry. The gels were observed daily over the seven day period following detachment for evidence of contraction. The plates were photographed at the end of the seven days to record the amount of contraction. The contraction was measured by recording the area of each gel in each well off the photograph using a computer scanner. The area of the gels with polypeptide was compared to the area of the gels without the polypeptide. Planimetry is a two-dimensional measurement. […] The planimetry measurements accordingly underestimate the degree of contraction that actually occurred.
The collagen gels were cast with or without the incorporation of 25 ug/ml of fibronectin. […] These controls using deactivated cells indicate that cell growth and proliferation are required to effect gel shrinkage.

[2] = 3H-heparin; cited from earlier work
[3] = system: proliferative vitreoretinopathy rabbit model; conditions: cited from earlier work
[4] = system: proliferative vitreoretinopathy in rabbits; test: Rabbit model of experimental proliferative vitreoretinopathy (intravitreal fibroblast injection); format: in vivo
Experimental: The rabbit model for proliferative vitreoretinopathy is described in Thresher et al., Graefe's Arch. Clin. Exp. Ophthalmol., 221, 192-198 (1984). Adult Dutch Belted rabbits of both sexes were used in the study. All animals were treated according to ARVO Animal Use Guidelines. All eyes were examined prior to initiation of a study and only clinically normal animals were used.
The rabbits were anesthetized using an intramuscular injection of a mix of ketamine (30 mg/kg) and xylazine (5 mg/kg). Pupils were dilated with Mydriacyl (Tropicamide) 1% and Neosynephrine 2.5% topical drops. Topical conjunctival anesthesia was provided with Proparacaine […] drops. All procedures were performed in an approved animal surgical facility. […] This site was used for subsequent intraocular injections, preventing iatrogenic retinal tears at the injection site. An intravitreal injection of 0.4 cc millipore-filtered 100% perfluoropropane gas was administered to produce a gas compression vitrectomy. Once the expansile gas bubble had absorbed, 5-10×10^4 dermal rabbit fibroblasts with or without 200 μg of polypeptide (injection volume-0.1 cc) were injected through a 27 gauge needle into the vitreous cavity. Under indirect ophthalmoscopic visualization, the tip of the needle was placed over the optic nerve head and the cells were injected in this location.
The animals were then observed for the development of proliferative vitreoretinopathy. The final stage of retinal detachment was scored from 0 to 7 using the standard grading scale shown below (see Hida et al., Graefe's Arch. Clin. Exp. Ophthalmol., 225, 1763-1769 (1991)).
Retinal photographs were taken with a wide field fundus camera (Canon) to document the final stage of retinal detachment. Animals were sacrificed while under deep anesthesia with an intravenous injection of 1 cc of euthanasia solution. The eyes were then immediately enucleated, fixed in 10% formalin, paraffin embedded, sectioned at 7 microns, and stained with hematoxylin and eosin for histology.
Three weeks following peripheral retinal cryopexy and gas compression vitrectomy, rabbit fibroblasts incubated for 1 hr with 200 ug of laminin polypeptide R37, type IV collagen polypeptide Hep-II, or BSS (balanced saline solution; control) were injected intravitreally. One eye of each rabbit received polypeptide incubated fibroblasts and the other eye received the control cells. Eyes were examined every three days, and the degree of retinal detachment was graded on the standard scale described above.

rabbit eye = test: Intravitreal polypeptide toxicity in rabbit eye (ERG, clinical observations, histology); format: in vivo
Experimental: The toxicity of the polypeptides was determined by three techniques:
ERG. Electroretinograms (ERG) were carried out as a functional indicator of toxicity of a polypeptide treatment. Polypeptides were injected at 200 ug and 400 ug (twice the dose that inhibited proliferative vitreoretinopathy), and ERG measurements were performed three times in each eye at various times post-injection (1 hr to 6 weeks).
Clinical observations. Observation by indirect ophthalmoscopy and slit lamp examination were performed to probe for evidence of toxicity.
Histology. Following ERG and clinical observations, the eyes were immediately enucleated, fixed in 10% formalin, paraffin embedded, sectioned at 7 microns, and stained with hematoxylin and eosin.

dermal fibroblasts [5] = conditions: Verdoorn et al. 1986; cited from earlier work
dermal fibroblasts [6] = conditions: Verdoorn et al. 1986; cited from earlier work; remark: listed apart in the source
[7] = system: rabbit conjunctival fibroblasts; test: Conjunctival fibroblast proliferation, tritiated thymidine assay; format: cell-based; conditions: day 4; mitomycin-C at 100 μg/ml (positive control); no drug control 8537 cpm
Description: The failure of gluacoma treatment by filtration surgery is most often caused by scarring. Scarring requires fibroblast proliferation and fibrosis of the subconjunctive space. Proliferation of rabbit conjunctival fibroblasts was studied using the tritiated thymidine assay, which serves as an in vitro model of fibroblast proliferation in the rabbit eye (see Invest. Ophthalmol. Vis. Sci., 31, 1848-1855 (1990)). The ability of synthetic polypeptides derived from ECM molecules to inhibit conjuntival fibroblast proliferation was examined in this model.
Rabbit conjunctival fibroblasts were plated into 96-well microtiter plates at 1000 cells/well in 200 microliters of standard fibroblast culture media. Standard fibroblast culture media include Eagle's minimal essential medium containing 15% fetal bovine serum, penicillin G 100 IU/ml, streptomycin 100 μg/ml, and amphotericin B 0.25 μg/ml. Hep-II was added to the wells in concentrations ranging from 1 μg/ml to 1000 μg/ml after removing an equal volume of media to maintain 200 microliters/well. The peptide was used in concentrations of 1, 3, 7, 10, 25, 50, 100, 200, 300, 400, 500, 600, 800 and 1000 microgram/ml (experiments 1-14, respectively in FIG. 26). The tissue culture plates were incubated at 37° C. in a humidified atmosphere of 5% carbon dioxide. Two separate sets experiments were conducted. Each set of experiments was done in replicates of four. In the first set of experiments, tritiated thymidine was added 22 hours prior to each harvesting on days 4, 5, and 8. In the second set of experiments, tritiated thymidine was added 22 hours prior to each harvesting on days 4, 5, and 6. Wells with vehicle but no test compound served as negative controls (experiment #15) and cells with mitomycin-C at 100 μg/ml served as positive controls (experiment #16).

dermal fibroblasts [8] = conditions: Verdoorn et al. 1986; cited from earlier work; remark: listed apart in the source
fibroblasts = conditions: cited from earlier work
[9] = system: human scleral fibroblasts; conditions: cited from earlier work
[10] = system: retinal pigmented epithelial cells; conditions: cited from earlier work

TSLRKALLHAPTGSYSDGQ [R35, TSLRKALLHAPTGSYSDGQ]
Contraction [1]: 63%
Heparin binding [2]: do not bind

CC1(C)O[C@@H]2C[C@H]3[C@@H]4CCC5=CC(=O)C=C[C@]5(C)[C@@]4(F)[C@@H](O)C[C@]3(C)[C@]2(C(=O)CO)O1 [triamcinolone acetonide]
Incidence of retinal detachment ([3]; eyes injected with triamcinolone acetonide, reduced from 93%): 75%

KATPMLKMRTSFHGCIK [R37, Lys-Ala-Thr-Pro-Met-Leu-Lys-Met-Arg-Thr-Ser-Phe-His-Gly-Cys-Ile-Lys]
Contraction [1]: 12%
Effect on fibroblast-mediated collagen gel contraction [1]: most potent inhibitory effects on contraction
Retina appearance (stage 0-7 scale), fundus photograph ([4]; 200 ug with 100,000 fibroblasts, three weeks after fibroblast injection): normal (Stage 0)
# Detached Retinas (%) ([4]; Expt II: 200 ug, 50,000 cells, RD staged at day 21, control 40%): 0%
# Detached Retinas ([4]; Expt II: 200 ug, 50,000 cells, RD staged at day 21, total 5 eyes, control 2 of 5): 0
# Detached Retinas (%) ([4]; Expt III: 200 ug, 100,000 cells, RD staged at day 7, control 100%): 14%
# Detached Retinas ([4]; Expt III: 200 ug, 100,000 cells, RD staged at day 7, total 7 eyes, control 7 of 7): 1
# Detached Retinas (%) ([4]; Expt IV: 200 ug, 80,000 cells, RD staged at day 21, control 100%): 25%
# Detached Retinas ([4]; Expt IV: 200 ug, 80,000 cells, RD staged at day 21, total 4 eyes, control 3 of 3): 1
Degree of retinal detachment ([4]; fibroblasts incubated 1 hr with 200 ug polypeptide, intravitreal): inhibited the degree of retinal detachment
Retinal histopathology (rabbit eye; following injection of 400 ug): normal rabbit retinal histopathology
Toxic effects by clinical observations, histopathology or ERG (rabbit eye; intravitreal injection of 200 ug or 400 ug): No toxic effects
Heparin binding [2]: bind

CC(=O)O[C@H]1C(=O)[C@@]2(C)[C@H]([C@H](OC(=O)c3ccccc3)[C@]3(O)C[C@H](OC(=O)[C@H](O)[C@@H](NC(=O)c4ccccc4)c4ccccc4)C(C)=C1C3(C)C)[C@]1(OC(C)=O)CO[C@@H]1C[C@@H]2O [taxol]
Inhibition of cell proliferation (dermal fibroblasts [5]): most effective
Traction retinal detachment induced by injected chorioretinal fibroblasts ([3]; 0.5 μg intravitreal injection): reduces traction retinal detachment

KEGYKVRLDLNITLEFRTTSK [R38]
Contraction [1]: 74%
Effect on fibroblast-mediated collagen gel contraction [1]: frequently found to promote contraction
Heparin binding [2]: bind

KNLEISRSTFDLLRNSYGVRK [R26]
Contraction [1]: 45%
Effect on fibroblast-mediated collagen gel contraction [1]: Inhibition of gel contraction was also observed
Heparin binding [2]: do not bind

COc1cc2c(c(OC)c1OC)-c1ccc(OC)c(=O)cc1[C@@H](NC(C)=O)CC2 [colchicine]
Inhibition of gel contraction (dermal fibroblasts [6]): most effective at inhibiting gel contraction
Inhibition of cell proliferation (dermal fibroblasts [5]): inhibited cell proliferation

CO[C@@]12[C@H](COC(N)=O)C3=C(C(=O)C(C)=C(N)C3=O)N1C[C@@H]1N[C@@H]12 [mitomycin-C, reference compound]
Gel contraction by pretreated fibroblasts ([1]; fibroblasts pretreated with mitomycin C, data not shown): did not cause gel contraction
Thymidine uptake [7]: 375 cpm

YEKPGSPPREVVPRPRPGV [FN-C/H-I]
Heparin binding [2]: known to bind

COc1cccc2c1C(=O)c1c(O)c3c(c(O)c1C2=O)C[C@@](O)(C(C)=O)C[C@@H]3O[C@H]1C[C@H](N)[C@H](O)[C@H](C)O1 [daunomycin]
Inhibition of gel contraction (dermal fibroblasts [6]): not found to inhibit contraction
Inhibition of cell proliferation (dermal fibroblasts [5]): most effective
Inhibition of cell migration (dermal fibroblasts [8]): most inhibited

SPPRRARVT [FN-C/H-IV, Ser-Pro-Pro-Arg-Arg-Ala-Arg-Val-Thr]
Effect on fibroblast-mediated collagen gel contraction [1]: Inhibition of gel contraction was also observed
Heparin binding [2]: known to bind

KNNQKSEPLIGRKKT [FN-C/H-IIa]
Heparin binding [2]: known to bind

C=C1[C@@H](C)[C@H]2[C@H](Cc3ccccc3)NC(=O)[C@]23OC(=O)/C=C/[C@H](O)CCC[C@@H](C)C/C=C/[C@H]3[C@@H]1O [cytochalasin B]
Inhibition of cell proliferation (dermal fibroblasts [5]): inhibited cell proliferation
Inhibition of cell migration (dermal fibroblasts [8]): minimal effect on cell migration

heparin
Fibroblast-mediated contraction of type I collagen gels (fibroblasts): inhibit
Proliferation of human scleral fibroblasts [9]: inhibits the proliferation
Proliferation of retinal pigmented epithelial cells [10]: inhibits the proliferation
Postoperative bleeding ([3]; rabbit, in vivo): increased postoperative bleeding was observed
Development of intraocular fibrin membranes ([3]; standardized PVR rabbit model): prevent the development of intraocular fibrin membranes

YRVRVTPKEKTGPMKE [FN-C/H-III]
Heparin binding [2]: known to bind

GVKGDKGNPGWPGAP [IV-H1, GVKGDKGNPGWPGAP]
% Contraction [1]: 72%
Effect on fibroblast-mediated collagen gel contraction [1]: frequently found to promote contraction

GEFYFDLRLKGDK [Hep-III, GEFYFDLRLKGDK]
% Contraction [1]: 33%
Heparin binding [2]: reported to bind heparin

WQPPRARI [FN-C/H-V]
Heparin binding [2]: known to bind

TAGSCLRKFSTM [Hep-I, TAGSCLRKFSTM]
% Contraction [1]: 33%
Heparin binding [2]: reported to bind heparin
